Experimental data from US20100099561A1, “HETEROBICYCLIC ALKYLTHIO-BRIDGED ISOXAZOLINES” (E.I. DU PONT DE NEMOURS AND COMPANY, priority 2008, published 2010).

Tests used:
Assay type in all cases: in vivo
corn (Zea mays) [1] = assay: Test A preemergence, corn; details: 0 to 100 scale (0 no effect, 100 complete control)
Outline: (§1)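 Greenhouse pre/postemergence test, loam–sand soil. Postemergence plants one- to two-leaf, 2–10 cm. Visual injury rating ~10 d after treatment, 0–100 vs untreated.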

[2] = system: bermudagrass (Cynodon dactylon); assay: Test B preemergence, bermudagrass; details: scale 0 to 100
From the text: (§2) Seeds of plant species selected from blackgrass (Alopecurus myosuroides), downy bromegrass (Bromus tectorum), green foxtail (Setaria viridis), Italian ryegrass (Lolium multiflorum), wheat (Triticum aestivum), wild oat (Avena fatua), catchweed bedstraw (Galium aparine), bermudagrass (Cynodon dactylon), Surinam grass (Brachiaria decumbens), cocklebur (Xanthium strumarium), corn (Zea mays), large crabgrass (Digitaria sanguinalis), woolly cupgrass (Eriochloa villosa), giant foxtail (Setaria faberii), goosegrass (Eleusine indica), johnsongrass (Sorghum halepense), kochia (Kochia scoparia), lambsquarters (Chenopodium album), morningglory (Ipomoea coccinea), nightshade (eastern black nightshade, Solanum ptycanthum), yellow nutsedge (Cyperus esculentus), pigweed (Amaranthus retroflexus), ragweed (common ragweed, Ambrosia elatior), soybean (Glycine max), sunflower (common oilseed sunflower, Helianthus annuus), Russian thistle (Salsola kali), and velvetleaf (Abutilon theophrasti) were planted into a blend of loam soil and sand and treated preemergence with test compounds formulated in a non-phytotoxic solvent mixture which included a surfactant. Treated plants and controls were maintained in a greenhouse for 13 to 15 days, after which time all species were compared to controls and visually evaluated. Plant response ratings, summarized in Table B, are based on a scale of 0 to 100 where 0 is no effect and 100 is complete control. A dash (-) response means no test result.

[3] = system: velvetleaf (Abutilon theophrasti); assay: Test A postemergence, velvetleaf; details: 0 to 100 scale (0 no effect, 100 complete control)
Outline: as §1

[4] = system: barnyardgrass (Echinochloa crus-galli); assay: Test A preemergence, barnyardgrass; details: 0 to 100 scale (0 no effect, 100 complete control)
Outline: as §1

[5] = system: Italian ryegrass (Lolium multiflorum); assay: Test B preemergence, Italian ryegrass; details: Preemergence, scale 0 to 100
From the text: as §2

[6] = system: cocklebur (Xanthium strumarium); assay: Test B preemergence, cocklebur; details: scale 0 to 100
From the text: as §2

[7] = system: catchweed bedstraw (Galium aparine); assay: Test B preemergence, catchweed bedstraw; details: scale 0 to 100
From the text: as §2

[8] = system: woolly cupgrass (Eriochloa villosa); assay: Test B preemergence, woolly cupgrass; details: scale 0 to 100
From the text: as §2

[9] = system: large crabgrass (Digitaria sanguinalis); assay: Test A preemergence, large crabgrass; details: 0 to 100 scale (0 no effect, 100 complete control)
Outline: as §1

[10] = system: giant foxtail (Setaria faberi); assay: Test A postemergence, giant foxtail; details: 0 to 100 scale (0 no effect, 100 complete control)
Outline: as §1

[11] = system: umbrella sedge (Cyperus difformis); assay: Test B flooded paddy test, umbrella sedge; details: Flood, scale 0 to 100
Outline: (§3)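 Rice, umbrella sedge, ducksalad and barnyardgrass at 2-leaf stage; pots flooded to 3 cm, compounds applied into paddy water, depth held throughout. Greenhouse 13 to 15 days, then visual rating vs untreated controls on 0–100 scale (0 no effect, 100 complete control); dash means no test result.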

[12] = system: barnyardgrass (Echinochloa crus-galli); assay: Test B flooded paddy test, barnyardgrass; details: Flood
Outline: as §3

[13] = system: wheat (Triticum aestivum); assay: Test B preemergence, wheat; details: Preemergence, scale 0 to 100
From the text: as §2

[14] = system: pigweed (Amaranthus retroflexus); assay: Test A preemergence, pigweed; details: 0 to 100 scale (0 no effect, 100 complete control)
Outline: as §1

corn (Zea mays) [15] = assay: Test A postemergence, corn; details: 0 to 100 scale (0 no effect, 100 complete control)
Outline: as §1

[16] = system: Surinam grass (Brachiaria decumbens); assay: Test B preemergence, Surinam grass; details: Preemergence, scale 0 to 100
From the text: as §2

[17] = system: wheat (Triticum aestivum); assay: Test A postemergence, wheat; details: 0 to 100 scale (0 no effect, 100 complete control)
Outline: as §1

[18] = system: lambsquarters (Chenopodium album); assay: Test B preemergence, lambsquarters; details: scale 0 to 100
From the text: as §2

[19] = system: nightshade (eastern black nightshade, Solanum ptycanthum); assay: Test B preemergence, nightshade; details: scale 0 to 100
From the text: as §2

[20] = system: pigweed (Amaranthus retroflexus); assay: Test A postemergence, pigweed; details: 0 to 100 scale (0 no effect, 100 complete control)
Outline: as §1

CC1(C)CC(S(=O)(=O)Cc2c(C(F)(F)F)nc3n(c2=O)CCS3)=NO1 [Compound 6]
Plant response rating, Corn (corn (Zea mays) [1]; 125 g ai/ha): 0 | Plant response rating, Corn (corn (Zea mays) [1]; 500 g ai/ha): 0 | Plant response rating, Bermudagrass ([2]; 16 g ai/ha): 100 | Plant response rating, Bermudagrass ([2]; 31 g ai/ha): 100 | Plant response rating, Bermudagrass ([2]; 62 g ai/ha): 100 | Plant response rating, Bermudagrass ([2]; 125 g ai/ha): 100 | Plant response rating, Velvetleaf ([3]; 125 g ai/ha): 60 | Plant response rating, Velvetleaf ([3]; 500 g ai/ha): 80 | Plant response rating, Barnyardgrass ([4]; 125 g ai/ha): 70 | Plant response rating, Barnyardgrass ([4]; 500 g ai/ha): 90 | Plant response rating, Ryegrass, Italian ([5]; 16 g ai/ha): 0 | Plant response rating, Ryegrass, Italian ([5]; 31 g ai/ha): 15 | Plant response rating, Ryegrass, Italian ([5]; 62 g ai/ha): 80 | Plant response rating, Ryegrass, Italian ([5]; 125 g ai/ha): 95 | Plant response rating, Cocklebur ([6]; 16 g ai/ha): 0 | Plant response rating, Cocklebur ([6]; 31 g ai/ha): 0 | Plant response rating, Cocklebur ([6]; 62 g ai/ha): 0 | Plant response rating, Cocklebur ([6]; 125 g ai/ha): 0 | Plant response rating, Galium ([7]; 16 g ai/ha): 0 | Plant response rating, Galium ([7]; 31 g ai/ha): 50 | Plant response rating, Galium ([7]; 62 g ai/ha): 50 | Plant response rating, Galium ([7]; 125 g ai/ha): 100 | Plant response rating, Cupgrass, Woolly ([8]; 16 g ai/ha): 60 | Plant response rating, Cupgrass, Woolly ([8]; 31 g ai/ha): 98 | Plant response rating, Cupgrass, Woolly ([8]; 62 g ai/ha): 98 | Plant response rating, Cupgrass, Woolly ([8]; 125 g ai/ha): 100 | Plant response rating, Crabgrass, Large ([9]; 125 g ai/ha): 80 | Plant response rating, Crabgrass, Large ([9]; 500 g ai/ha): 100 | Plant response rating, Foxtail, Giant ([10]; 125 g ai/ha): 80 | Plant response rating, Foxtail, Giant ([10]; 500 g ai/ha): 90 | Plant response rating, Sedge, Umbrella ([11]; 62 g ai/ha): 0 | Plant response rating, Sedge, Umbrella ([11]; 250 g ai/ha): 75 | Plant response rating, Barnyardgrass ([12]; 62 g ai/ha, scale 0 to 100): 0 | Plant response rating, Barnyardgrass ([12]; 250 g ai/ha, scale 0 to 100 (0 no effect, 100 complete control)): 0 | Plant response rating, Wheat ([13]; 16 g ai/ha): 0 | Plant response rating, Wheat ([13]; 31 g ai/ha): 0 | Plant response rating, Wheat ([13]; 62 g ai/ha): 0 | Plant response rating, Wheat ([13]; 125 g ai/ha): 0 | Plant response rating, Pigweed ([14]; 125 g ai/ha): 60 | Plant response rating, Pigweed ([14]; 500 g ai/ha): 100 | Plant response rating, Corn (corn (Zea mays) [15]; 125 g ai/ha): 0 | Plant response rating, Corn (corn (Zea mays) [15]; 500 g ai/ha): 0 | Plant response rating, Surinam Grass ([16]; 16 g ai/ha): 20 | Plant response rating, Surinam Grass ([16]; 31 g ai/ha): 60 | Plant response rating, Surinam Grass ([16]; 62 g ai/ha): 98 | Plant response rating, Surinam Grass ([16]; 125 g ai/ha): 100 | Plant response rating, Wheat ([17]; 125 g ai/ha): 20 | Plant response rating, Wheat ([17]; 500 g ai/ha): 30 | Plant response rating, Lambsquarters ([18]; 16 g ai/ha): 0 | Plant response rating, Lambsquarters ([18]; 31 g ai/ha): 20 | Plant response rating, Lambsquarters ([18]; 62 g ai/ha): 90 | Plant response rating, Lambsquarters ([18]; 125 g ai/ha): 95 | Plant response rating, Nightshade ([19]; 16 g ai/ha): 0 | Plant response rating, Nightshade ([19]; 31 g ai/ha): 45 | Plant response rating, Nightshade ([19]; 62 g ai/ha): 95 | Plant response rating, Nightshade ([19]; 125 g ai/ha): 98 | Plant response rating, Pigweed ([20]; 125 g ai/ha): 50 | Plant response rating, Pigweed ([20]; 500 g ai/ha): 90
